Data published in patent US5563176A (priority 1994, dated 1996).
Like-named read-outs stand apart in the source and are kept apart here.

Tests used:
HL60 cells (myeloid) = assay: cells; assay type: cell-based, human; details: Homo sapiens, HL-60, 2 h
8392 cells (B-cell) = assay: cells; assay type: cell-based; details: 2 h
8402, T-cell = assay: inhibition of thymidine incorporation after two hour exposure, 8402; assay type: cell-based; details: 2 h, Table 1, 8402, two hour exposure
Procedure: (§1) To assess cytotoxic effects, various concentrations of illudins were added to cultures of cells for 48 hours, then cell growth/viability was determined by trypan blue exclusion. As an alternative to 48 hour continuous exposure studies, cells were plated in liquid culture in 96 well plates, exposed to various concentrations of illudins for 2 hours, pulsed with [^3 H]-thymidine for one to two hours and harvested onto glass filters. The filter papers were added to vials containing scintillation fluid and residual radioactivity determined in a beta (scintillation) counter.
(§2) two hour exposure to the toxins (N - 3).

242, melanoma = assay: inhibition of thymidine incorporation after two hour exposure, 242; assay type: cell-based; details: 2 h; Table 1; 242, two hour exposure
Procedure: as §1, §2

547, ovarian = assay: inhibition of thymidine incorporation after two hour exposure, 547; assay type: cell-based; details: 2 h; Table 1; 547, two hour exposure
Procedure: as §1, §2

SL-2, murine (thymic) = assay: inhibition of thymidine incorporation after two hour exposure, SL-2; assay type: cell-based; details: Mus musculus, 2 h; Table 1; SL-2, two hour exposure
Procedure: as §1, §2

MCF-7, breast = assay: cells; assay type: cell-based, human
MDA-231, breast = assay: cells; assay type: cell-based
MV522 cells = assay: cells; assay type: cell-based, human; details: Homo sapiens, MV522, 2 h, read-out: Two hour IC50
CEM parent cells = assay: sensitivity of mdr lines, CEM parent; assay type: cell-based
CEM VM-1 variant cells = assay: sensitivity of mdr lines, CEM VM-1; assay type: cell-based; details: Homo sapiens, CEM-VM1
CEM AraC variant cells = assay: sensitivity of mdr lines, CEM AraC; assay type: cell-based
[1] = test system: CEM VLB100 (gp170+) variant cells; assay: sensitivity of mdr lines, CEM VLB100; assay type: cell-based
[2] = test system: CEM Dox (gp170+) variant cells; assay: sensitivity of mdr lines, CEM Dox; assay type: cell-based
[3] = test system: MDA-231 parent (Breast) cells; assay: sensitivity of mdr lines, MDA-231 parent; assay type: cell-based; details: Homo sapiens, MDA-MB-231
[4] = test system: MDA-231 3-1 (gp170+) cells; assay: sensitivity of mdr lines, MDA-231 3-1; assay type: cell-based; details: Homo sapiens, MDA-MB-231
[5] = test system: MCF7-wt parent (Breast) cells; assay: sensitivity of mdr lines, MCF7-wt parent; assay type: cell-based; details: Homo sapiens
[6] = test system: MCF7 ADR (GSH-transferase) cells; assay: cells; assay type: cell-based; details: Homo sapiens
HL-60 parent cells = assay: sensitivity of mdr lines, HL-60 parent; assay type: cell-based; details: Homo sapiens
HL-60 ADR (gp150+) cells = assay: sensitivity of mdr lines, HL-60 ADR; assay type: cell-based; details: Homo sapiens, HL60/ADR
KB parent cells = assay: sensitivity of mdr lines, KB parent; assay type: cell-based
KB C-1 (gp170+) cells = assay: sensitivity of mdr lines, KB C-1; assay type: cell-based; details: KBC-1
KB VBL (gp170+) cells = assay: sensitivity of mdr lines, KB VBL; assay type: cell-based
L1210 parent cells = assay: sensitivity of mdr lines, L1210 parent; assay type: cell-based; details: Mus musculus
[7] = test system: L1210 DDPt (cis-plat) cells; assay: sensitivity of mdr lines, L1210 DDPt; assay type: cell-based; details: Mus musculus
L1210 BCNU cells = assay: sensitivity of mdr lines, L1210 BCNU; assay type: cell-based; details: Mus musculus
[8] = test system: L1210 PAM (melphalan) cells; assay: sensitivity of mdr lines, L1210 PAM; assay type: cell-based; details: Mus musculus
[9] = test system: L1210 CPA (cyclophos) cells; assay: sensitivity of mdr lines, L1210 CPA; assay type: cell-based; details: Mus musculus
HL-60 cells = assay: cells; assay type: cell-based, human; details: Homo sapiens, HL-60
HL60 cells = assay: cells; assay type: cell-based; details: Homo sapiens, HL-60, 48 h, read-out: 48 hour IC50
8392 cells = assay: cells; assay type: cell-based; details: 48 h, read-out: 48 hour IC50
MV522 = assay: cells; assay type: cell-based; details: Homo sapiens, MV522, 48 h, read-out: 48 hour IC50
[10] = test system: Molt-4 (human T-cell leukemia) xenograft; assay: Molt-4 xenograft in athymic Balb/c nu/nu mice; assay type: in vivo; details: Molt-4, athymic mice; FIG. 4
C1498 cells = assay: C1498 syngeneic mouse AML model, increased life span; assay type: in vivo
Procedure: In collaboration, the in vivo effects of dehydroilludin M was again studied. Initially the compound was studied against L1210 cells. […] The dehydroilludin M was then administered as a 24 hour infusion (5.0 mg/kg); the ILS was 11%. After we became aware of the presence of the energy-dependent uptake in human myelocytic cells, dehydroilludin M was screened for in vivo […], produced an ILS of 35%.

[11] = test system: human lung adenocarcinoma MV522; details: in vivo
[12] = test system: human lung adenocarcinoma MV522; assay: animal or person; details: MV522, ip, read-out: life span
Go = assay: zone of inhibition, Go
Colon 38 = assay: zone of inhibition, Colon 38
CFU-GM = assay: colony formation zone size, CFU-GM; details: CFU-GM
L1210 = assay: zone of inhibition / colony formation, L1210

Compound: CC1=C2C(=C[C@@](C)(CO)C2O)C(=O)[C@](C)(O)C12CC2 (stereo partly shown) [Illudin S]
- IC50 (HL60 cells (myeloid)): 7 ± 1 nM
- IC50 (HL60 cells (myeloid); read-out: Two hour IC50): 10 ± 1 nM
- IC50 (8392 cells (B-cell)): 236 ± 31 nM
- IC50 (8392 cells (B-cell); read-out: Two hour IC50): 236 ± 2 nM
- IC50 (8402, T-cell): 669 ± 196 nM
- IC50 (242, melanoma): 607 ± 70 nM
- IC50 (547, ovarian): 607 ± 110 nM
- IC50 (SL-2, murine (thymic)): 142 ± 15 nM
- sensitivity to illudin S (MCF-7, breast): markedly sensitive
- IC50 (MCF-7, breast; Homo sapiens, MCF7, 2 h): 58 ± 5 nM
- sensitivity to illudin S (MDA-231, breast): markedly sensitive
- IC50 (MDA-231, breast; Homo sapiens, MDA-MB-231, 2 h): 2 ± 0.2 nM
- IC50 (MV522 cells): 19 ± 6 nM
- IC50 (CEM parent cells): 8.3 ± 2.6 nM
- IC50 (CEM VM-1 variant cells): 16.2 ± 6.4 nM
- IC50 (CEM AraC variant cells): 14 nM
- IC50 [1]: 3.7 ± 0.7 nM
- IC50 [2]: 14 nM
- IC50 [3]: 0.85 ± 0.23 nM
- IC50 [4]: 0.89 ± 0.38 nM
- IC50 ([5]; MCF7-wt Parent, read-out: Sensitivity of mdr lines): 0.88 ± 0.11 nM
- IC50 ([5]; MCF7-wt, read-out: parent IC50): 0.88 nM
- IC50 ([6]; NCI/ADR-RES, read-out: Sensitivity of mdr lines): 3.7 ± 0.4 nM
- IC50 ([6]; read-out: daughter line IC50): 3.7 nM
- IC50 (HL-60 parent cells): 3.1 ± 1.1 nM
- IC50 (HL-60 ADR (gp150+) cells): 1.9 ± 0.8 nM
- IC50 (KB parent cells): 0.58 ± 0.12 nM
- IC50 (KB C-1 (gp170+) cells): 0.69 ± 0.15 nM
- IC50 (KB VBL (gp170+) cells): 0.69 ± 0.11 nM
- IC50 (L1210 parent cells): 0.42 ± 0.08 nM
- IC50 [7]: 0.46 ± 0.12 nM
- IC50 (L1210 BCNU cells): 0.58 ± 0.08 nM
- IC50 [8]: 0.62 ± 0.15 nM
- IC50 [9]: 0.46 ± 0.12 nM
- IC50 (HL-60 cells): 10 nM
- IC50 (HL60 cells): 10 ± 1 nM
- IC50 (8392 cells): 8 ± 2 nM
- IC50 (MV522): 4 ± 1 nM
- tumor growth [10]: tumor growth delay
- ILS (C1498 cells; 2.5 mg/kg IP once a day for 5 days): 44%
- ILS (C1498 cells; single bolus, 2.5 mg/kg IP): 35%
- life span versus control [11]: no significant increase in the life span
- response vs control in vivo at 0.25 mg/kg [12]: 104 ± 20%
- response vs control in vivo at 2.5 mg/kg [12]: < 26%
- Zone of Inhibition (Go; 0.63 ug/disc): 3
- Zone of Inhibition (Go; 1.25 ug/disc): 70
- Zone of Inhibition (Go; 2.50 ug/disc): 240
- Zone of Inhibition (Colon 38; Colon 38, 0.63 ug/disc): 0
- Zone of Inhibition (Colon 38; Colon 38, 1.25 ug/disc): 0
- Zone of Inhibition (Colon 38; Colon 38, 2.50 ug/disc): 30
- Zone Size (CFU-GM; dilution 1/1,000): 400
- Zone Size (CFU-GM; dilution 1/4,000): 200
- Zone Size (CFU-GM; dilution 1/16,000): 0
- Zone Size (CFU-GM; dilution 1/64,000): 0
- Zone of Inhibition (L1210; L1210, 0.63 ug/disc): 320
- Zone of Inhibition (L1210; L1210, 1.25 ug/disc): 400
- Zone of Inhibition (L1210; L1210, 2.50 ug/disc): 500
- Zone Size (L1210; L1210, dilution 1/1,000): 850
- Zone Size (L1210; L1210, dilution 1/4,000): 600
- Zone Size (L1210; L1210, dilution 1/16,000): 550
- Zone Size (L1210; L1210, dilution 1/64,000): 300
